What was measured:
RAW 264.7 cells = test: MTT cell viability assay; format: cell-based, murine
Procedure: Cell culture—RAW 264.7 cells (murine macrophage cell line) were acquired from American Type Culture Collection (ATCC, Rockville, Md., USA) were employed for cell culture experiments.
MTT assay—RAW 264.7 cells (2×10^5 cells/mL, 100 μL) were plated in each well of a black 96-well plate and adhered overnight. The adhered cells were treated with free PhA (DMSO: PBS, 1:3) or PhA loaded BCNs (PBS) or CT BCNs or PhA-CT BCNs and incubated for 4 h. […] Post irradiation, cells were incubated for predetermined time intervals and then added with MTT (5 mg/mL in PBS, 10 μL). After 4 h MTT incubation with cells, formazan crystal deposition in each well was dissolved in DMSO (200 μL) and the absorbance was measured at 560 nm. All the samples were analyzed in quadruplicates.
The percentage cell viability was calculated as:
% cell viability=(OD of treated sample/OD of untreated sample)*100.

[1] = Encapsulation efficiency in PEG-b-PPS BCNs; format: physicochemical; details: in PEG-b-PPS BCNs by FNP; hydrophilic cargo co-encapsulated with PhA
Procedure: Formation of PEG-b-PPS BCNs—BCNs were formed by flash nanoprecipitation (FNP) technique using a hand-driven CIJ mixer as described previously.^3, 14 10 mg of PEG-b-PPS polymer was dissolved in 500 μL of tetrahydrofuran (THF) and was impinged against 500 μL of Milli-Q water. After impingement the nascent BCNs were diluted in a 1.5 mL reservoir of Milli-Q water. THF was removed by vacuum desiccation overnight, resulting in a 5 mg/mL BCN formulation in water. In cases where hydrophobic cargo was loaded into BCNs, the cargo was dissolved along with the 10 mg of PEG-b-PPS polymer in the 500 μL of THF used for impingement. In cases where hydrophilic cargo was loaded into BCNs, the cargo was dissolved in the 500 μL of water used for impingement.
Loading and determination of encapsulation efficiency—The loading of hydrophilic molecules (Calcein, FITC-BSA, BODIPY-BSA) or hydrophobic molecules (Pheophorbide A or Camptothecin) in to BCNs was performed using FNP technique as stated above. Here, 500 μL of Calcien (1 mM) or fluorophore-BSA (2 mg/mL) in water was impinged against 500 μL of Pheophorbide A (0.2 mg/ml) or Camptothecin (0.6 mg/ml) in THF into an aqueous reservoir to form BCNs. After removal of THF via desiccation, BCNs were washed two times with distilled water by centrifugation (10,000×g, 10 min) to remove all the unencapsulated payloads and further resuspended in PBS or water for analysis. The amount of Pheophorbide A was determined by calculating absorbance at 666 nm. Calcein, FITC/BODIPY-BSA, and Camptothecin loading was analyzed by measuring fluorescence intensities at 470/509, 495/525, and 359/434 (excitation/emission, nm), respectively.

DN1 T cells = test: Vaccination with BMDC treated ex vivo with MA or MA BCN, DN1 T cell activation and proliferation; format: in vivo, hCD1Tg mice; details: 1 or 6 weeks after intratracheal vaccination; MA BCN vs MA pulsed BMDC
Excerpt: One week before the 1 and 6 week timepoints, 3e6 DN1 T cells were adoptively transferred intravenously. DLN, lung, and spleen were obtained.

[2] = In vitro BCN degradation and release of payloads after irradiation; format: physicochemical; details: centrifugation
Procedure: In vitro BCN degradation and Release of payloads—In vitro degradation studies of PhA BCNs were performed under irradiation. Briefly, 200 μL of PhA BCNs (1 mg/ml) was transferred in to multiple wells of a 96 well black plate and then irradiated for 2.5 min at 50 mW/cm^2. The irradiated samples were immediately collected and centrifuged at 10,000×g for 10 min. After centrifugation, the supernatants and pellets were collected separately and analyzed using DLS and TEM as described above.
In vitro release of calcein, FITC-BSA, ethyl eosin and PhA from BCNs was measured after irradiation. 200 μL of PBS containing PhA BCNs co-loaded with calcein or FITC-BSA, or PhA BCNs and ethyl eosin BCNs, were transferred in to multiple wells of a 96 well black plate and then irradiated at 50 mW/cm^2 for 1.25, 2.5, 5 and 10 minutes. Post irradiation samples were centrifuged at 10,000×g for 10 min and supernatants were collected and further analyzed for amount released as described earlier. For PhA BCNs and ethyl eosin BCNs, % transmittance was measured using an M3 plate reader.

[3] = cited from earlier work

CC[C@@]1(O)C(=O)OCc2c1cc1n(c2=O)Cc2cc3ccccc3nc2-1 [free camptothecin, camptothecin]
Cytotoxicity (MTT viability) (RAW 264.7 cells; free drug, camptothecin 0.63 μg/mL, 48 h): significantly more cytotoxic than non-irradiated CT-PhA-BCNs
Cytotoxicity (MTT viability) (RAW 264.7 cells; non-irradiated, 24 h, three camptothecin concentrations (0.63, 1.56, 3.1 μg/mL)): dose-dependent cytotoxicity at 24 h
Cytotoxicity (MTT viability) (RAW 264.7 cells; non-irradiated, 48 h, three camptothecin concentrations): high cytotoxicity regardless of concentration at 48 h

O=C(O)CN(CC(=O)O)Cc1cc2c(cc1O)Oc1cc(O)c(CN(CC(=O)O)CC(=O)O)cc1C21OC(=O)c2ccccc21 [calcein]
Encapsulation efficiency [1]: 6.7±1.9%

mycolic acid [MA]
Activation and proliferation of DN1 T cells after vaccination with treated BMDC (DN1 T cells): differences in activation and proliferation of DN1 T cells 6 weeks after vaccination, but not 1 week after vaccination

FITC-BSA: fluorescein-tagged bovine serum albumin
Encapsulation efficiency [1]: 34±4%

CCOC(=O)c1ccccc1-c1c2cc(Br)c(=O)c(Br)c-2oc2c(Br)c([O-])c(Br)cc12.[K+] [ethyl eosin]
Release of photo-oxidizer into the supernatant after irradiation of loaded BCNs [2]: comparably ineffective

pheophorbide A [PhA]
Release of photo-oxidizer into the supernatant after irradiation of loaded BCNs [2]: significantly greater amounts than the comparably ineffective ethyl eosin
logP [3]: 6.93
Encapsulation efficiency [1]: 80.7±2.2%
Cell viability (MTT) (RAW 264.7 cells; RAW 264.7 cells, with irradiation vs non-irradiated, 12 h after irradiation): significant cell death

— US20210308065A1, “REMOTE MODULATION OF BICONTINUOUS NANOSPHERES FOR CONTROLLED DELIVERY APPLICATIONS” (Northwestern University, priority 2020, published 2021)
